Activity calls are given as the source filed them.
How the values were obtained:
Caspase-6 = molecular target: T1, Caspase-6 (Homo sapiens, UniProt P55212); assay: inhibition of CASP6 peptide cleavage – biochemical, VEID-R110 fluorescence, cherry-pick, dose response (AID 720632)
T1 sequence (P55212 whole entry): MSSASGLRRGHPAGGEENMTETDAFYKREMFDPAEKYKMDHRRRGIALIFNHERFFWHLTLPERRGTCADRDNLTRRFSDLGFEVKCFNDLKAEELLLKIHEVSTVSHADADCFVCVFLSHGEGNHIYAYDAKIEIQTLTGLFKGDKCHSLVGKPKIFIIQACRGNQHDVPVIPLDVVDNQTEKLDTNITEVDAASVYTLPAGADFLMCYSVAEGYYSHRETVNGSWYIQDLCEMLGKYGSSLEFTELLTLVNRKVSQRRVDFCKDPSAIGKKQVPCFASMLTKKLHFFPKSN

[1] = potency of ADAM10 substrate cleavage blockers – biochemical, QFRET, dose response (AID 743254);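 note: ADAM10 enzyme with the DM2 quenched FRET peptide as substrate; EDANS fluorescence gain as the protease cuts the substrate; inhibitor potency against ADAM10 proteolytic activity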
[2] = molecular target: Disintegrin and metalloproteinase domain-containing protein 17 (Homo sapiens, UniProt P78536); assay: inhibition of ADAM17 substrate cleavage – biochemical, quenched FRET substrate, counter-screen for ADAM10 exosite inhibitor project, dose response (AID 743253)
Sequence of Disintegrin and metalloproteinase domain-containing protein 17 (P78536 whole entry, the tested form may be a part): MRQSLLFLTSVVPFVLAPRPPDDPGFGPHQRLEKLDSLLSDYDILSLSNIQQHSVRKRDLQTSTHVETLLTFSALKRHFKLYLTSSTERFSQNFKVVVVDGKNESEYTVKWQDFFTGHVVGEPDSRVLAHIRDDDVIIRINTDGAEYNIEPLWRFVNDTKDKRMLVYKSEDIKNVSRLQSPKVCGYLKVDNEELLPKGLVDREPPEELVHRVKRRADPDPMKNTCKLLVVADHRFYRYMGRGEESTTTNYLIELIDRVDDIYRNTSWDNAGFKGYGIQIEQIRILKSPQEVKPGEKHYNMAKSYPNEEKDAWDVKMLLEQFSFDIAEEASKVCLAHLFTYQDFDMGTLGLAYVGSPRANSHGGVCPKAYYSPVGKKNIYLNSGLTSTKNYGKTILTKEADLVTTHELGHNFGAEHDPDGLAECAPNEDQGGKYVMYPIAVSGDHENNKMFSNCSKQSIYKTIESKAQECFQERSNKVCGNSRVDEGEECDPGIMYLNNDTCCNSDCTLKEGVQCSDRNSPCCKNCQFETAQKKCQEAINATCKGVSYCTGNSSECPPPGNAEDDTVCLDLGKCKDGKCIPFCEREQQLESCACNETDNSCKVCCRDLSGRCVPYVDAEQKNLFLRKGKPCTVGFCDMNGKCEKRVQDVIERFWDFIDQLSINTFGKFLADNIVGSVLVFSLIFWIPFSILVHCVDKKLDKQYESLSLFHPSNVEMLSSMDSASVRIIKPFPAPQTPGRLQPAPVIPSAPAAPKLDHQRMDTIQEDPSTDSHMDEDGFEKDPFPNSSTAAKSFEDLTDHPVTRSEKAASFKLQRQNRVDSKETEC

[3] = molecular target: Heat shock protein HSP 90-alpha (Homo sapiens, UniProt P07900); assay: Luminescence-based dose response biochemical high throughput screening assay for inhibitors of the Heat Shock Protein 90 (HSP90). [Related pubchem assays: 1831 (Summary AID.), 1846 (Confirmation screen.), 1789 (Primary screen.)]
Galanin receptor type 3 = molecular target: T2, Galanin receptor type 3 (Homo sapiens, UniProt O60755); assay: Fluorescence-based cell-based primary high throughput dose response assay to identify antagonists of the Galanin Receptor 3 (GalR3).; format: functional
T2 sequence (O60755 whole entry): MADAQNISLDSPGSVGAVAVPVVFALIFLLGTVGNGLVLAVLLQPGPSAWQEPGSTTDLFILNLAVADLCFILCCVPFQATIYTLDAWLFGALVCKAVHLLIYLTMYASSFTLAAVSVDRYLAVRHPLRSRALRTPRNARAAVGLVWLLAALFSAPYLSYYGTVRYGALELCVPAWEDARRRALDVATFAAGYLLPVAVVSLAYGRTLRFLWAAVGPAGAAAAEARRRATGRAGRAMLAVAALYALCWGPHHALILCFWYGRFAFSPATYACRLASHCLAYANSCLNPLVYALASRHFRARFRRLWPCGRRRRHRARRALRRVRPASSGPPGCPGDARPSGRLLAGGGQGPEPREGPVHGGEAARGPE

cells [4] = format: functional, cell-based; conditions: HEK-CNG
[5] = molecular target: T3, COUP transcription factor 2 (Homo sapiens, UniProt P24468); assay: Luminescence-based cell-based high throughput dose response assay to identify inhibitors of COUP-TFII (NR2F2).; format: functional;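 note: HEK293 cells transiently cotransfected with COUP-TFII expression vector and reporter; luciferase reporter luminescence driven by COUP-TFII from the pX2-168 reporter plasmid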
T3 sequence (P24468 whole entry): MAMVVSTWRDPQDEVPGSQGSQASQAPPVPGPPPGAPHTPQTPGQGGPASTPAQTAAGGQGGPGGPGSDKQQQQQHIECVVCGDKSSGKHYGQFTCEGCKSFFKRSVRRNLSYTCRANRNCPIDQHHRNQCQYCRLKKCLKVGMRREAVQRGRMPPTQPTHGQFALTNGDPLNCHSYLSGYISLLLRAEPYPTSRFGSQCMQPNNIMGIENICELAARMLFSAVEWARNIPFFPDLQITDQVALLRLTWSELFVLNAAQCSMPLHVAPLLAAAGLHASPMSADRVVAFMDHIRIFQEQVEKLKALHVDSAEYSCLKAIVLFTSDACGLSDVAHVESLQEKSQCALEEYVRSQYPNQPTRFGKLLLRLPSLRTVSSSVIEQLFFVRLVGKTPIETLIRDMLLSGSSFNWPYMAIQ

[6] = HPDE-C7 pancreatic duct cell viability loss – fluorescence, HTS (AID 430); format: functional, cell-based; conditions: Homo sapiens
[7] = molecular target: T4, Trace amine-associated receptor 1 (Homo sapiens, UniProt Q96RJ0); assay: Fluorescence-based cell-based high throughput dose response assay to identify agonists of the human trace amine associated receptor 1 (TAAR1).; format: functional
T4 sequence (Q96RJ0 whole entry): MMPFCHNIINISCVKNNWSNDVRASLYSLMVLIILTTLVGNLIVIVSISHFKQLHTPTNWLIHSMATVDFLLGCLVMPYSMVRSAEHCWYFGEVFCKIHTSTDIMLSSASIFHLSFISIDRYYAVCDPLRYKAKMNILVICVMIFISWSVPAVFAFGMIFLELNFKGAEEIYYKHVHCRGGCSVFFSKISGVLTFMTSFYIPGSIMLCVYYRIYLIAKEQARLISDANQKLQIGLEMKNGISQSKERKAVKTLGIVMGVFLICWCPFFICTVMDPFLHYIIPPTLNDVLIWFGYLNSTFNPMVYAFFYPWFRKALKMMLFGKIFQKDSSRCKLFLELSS

[8] = viability loss of HPDE-C7K cells – cell-based, fluorescence, HTS, primary screen (AID 431); format: functional; conditions: Homo sapiens
cells [9] = format: functional, cell-based
[10] = molecular target: T4, Trace amine-associated receptor 1; assay: Counterscreen for agonists of the human trace amine associated receptor 1 (hTAAR1): Fluorescence-based cell-based high throughput dose response assay to identify hTAAR1 agonist that also desensitize TAAR1 receptor response.; format: functional
cells [11] = format: functional, cell-based; remark: listed apart in the source
[12] = alpha-synuclein stem-loop luciferase translation blockers – H4 neuroglioma cells, luminescence, confirmation (AID 1988); format: functional, cell-based
[13] = molecular target: T5, Mannose-6-phosphate isomerase (Homo sapiens, UniProt P34949); assay: MPI inhibition at elevated mannose 6-phosphate – biochemical, fluorescence intensity, high mannose 6-phosphate, primary screen (AID 1220)
T5 sequence (P34949 whole entry): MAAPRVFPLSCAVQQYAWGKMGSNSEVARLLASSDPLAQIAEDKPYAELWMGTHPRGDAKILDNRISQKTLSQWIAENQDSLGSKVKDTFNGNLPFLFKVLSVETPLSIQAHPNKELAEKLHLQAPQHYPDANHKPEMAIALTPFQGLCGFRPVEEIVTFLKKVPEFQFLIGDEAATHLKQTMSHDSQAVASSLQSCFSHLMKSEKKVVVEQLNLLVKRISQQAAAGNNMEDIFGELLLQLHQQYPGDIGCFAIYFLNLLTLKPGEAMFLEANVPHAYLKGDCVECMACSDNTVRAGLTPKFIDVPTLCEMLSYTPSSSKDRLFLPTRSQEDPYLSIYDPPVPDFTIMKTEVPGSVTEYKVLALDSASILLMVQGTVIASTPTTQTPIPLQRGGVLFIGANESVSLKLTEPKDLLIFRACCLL

Kallikrein-7 = Kallikrein-7 (Homo sapiens, UniProt P49862); assay: Fluorescence Intensity-based biochemical primary high throughput dose response assay to identify activators of kallikrein-7 (K7) zymogen.
Sequence of Kallikrein-7 (P49862 whole entry): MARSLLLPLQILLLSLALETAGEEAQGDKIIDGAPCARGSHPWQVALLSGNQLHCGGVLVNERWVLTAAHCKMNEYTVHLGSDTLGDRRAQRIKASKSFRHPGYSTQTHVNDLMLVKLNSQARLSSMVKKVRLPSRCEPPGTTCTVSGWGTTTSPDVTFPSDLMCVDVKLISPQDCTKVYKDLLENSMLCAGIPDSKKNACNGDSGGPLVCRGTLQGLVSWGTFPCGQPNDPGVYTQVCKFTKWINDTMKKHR

[14] = Luminescence Cell-Based Dose Response HTS to Identify Inhibitors of 5'UTR Stem-Loop Driven Prion Protein mRNA Translation in H4 Neuroglioblastoma Cells. [Related pubchem assays: 1827 (Project Summary), 1813 (Primary HTS)]; format: functional
[15] = luciferase reporter signal suppression in cells – H4 neuroglioma cells, luminescence, dose response (AID 1990); format: functional, cell-based
Paired box protein Pax-8 = Paired box protein Pax-8 (Homo sapiens, UniProt Q06710); assay: PAX8 transcriptional activity inhibition in RMG-I – RMG-I cells, luciferase, cherry-pick, dose response (AID 687027); format: functional, cell-based;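 note: luciferase reporter driven by Pax8 target thyroperoxidase promoter measured by SteadyGlo luminescence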
Sequence of Paired box protein Pax-8 (Q06710 whole entry): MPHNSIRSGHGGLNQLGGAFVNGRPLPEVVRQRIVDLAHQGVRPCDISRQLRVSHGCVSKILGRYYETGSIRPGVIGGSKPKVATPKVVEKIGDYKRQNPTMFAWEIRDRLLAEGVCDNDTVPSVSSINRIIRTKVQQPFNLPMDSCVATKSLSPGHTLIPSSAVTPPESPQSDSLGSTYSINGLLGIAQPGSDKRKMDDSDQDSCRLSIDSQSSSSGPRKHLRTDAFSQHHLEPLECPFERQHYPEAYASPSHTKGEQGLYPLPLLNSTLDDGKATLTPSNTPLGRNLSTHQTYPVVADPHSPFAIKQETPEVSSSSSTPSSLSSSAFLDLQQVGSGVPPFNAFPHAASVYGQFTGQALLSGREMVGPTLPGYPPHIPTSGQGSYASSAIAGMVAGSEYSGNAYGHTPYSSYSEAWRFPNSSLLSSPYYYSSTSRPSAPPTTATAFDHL

[16] = general cell-killing toxicity readout – plate reader, dry powder samples, cytotoxicity control for PAX8 inhibitor project, dose response (AID 743021); format: functional, cell-based
[17] = blockers of HIV-1 ZM109 envelope-driven cell-cell fusion – HeLa effector, CEM target cells, luciferase, cherry-pick, dose response (AID 652058); format: functional, cell-based;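 note: luciferase signal from HIV-1 Env mediated cell-cell fusion of effector and target cells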
[18] = blockers of HIV-1 envelope-mediated cell-cell fusion – cherry-pick, dose response (AID 652057); format: functional, cell-based
[19] = off-target signal loss in HeLa-CEM21 co-culture – HeLa F-luc CTL cells, cherry-picked, counter-screen for HIV-1 Env fusion inhibitor project, dose response (AID 652040); format: functional, cell-based;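 note: potency for signal decrease marking cytotoxic or nonspecific inhibition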
[20] = HIV-1 AD8 envelope cell-cell fusion blockers – cherry-pick, dose response (AID 652062); format: functional, cell-based;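 note: luciferase signal from cell-cell fusion driven by HIV-1 clade B AD8 Env; potency is for inhibitors of fusion seen as a drop in luminescence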
[21] = P. falciparum Dd2 growth inhibitors, dose response, SYBR Green, cherry-picked samples (AID 1159567); format: functional, cell-based
[22] = Trypanosoma cruzi growth suppression in host cells – NIH3T3 host cells, beta-gal luminescence, confirmation (AID 2044); format: functional, cell-based;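 note: intracellular parasites grown in NIH/3T3 mouse fibroblasts as host cells; luminescent beta-galactosidase reporter signal from transgenic T. cruzi replicating inside host cells; inhibitors lower the luminescence signal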
[23] = HEK-293T cell viability reduction – luminescence, B-cell screen hits, cytotoxicity control for BCR NF-kB inhibitor project, dose response (AID 489021); format: functional, cell-based;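 note: HEK-293T cells carrying an NF-kB luciferase reporter; cells exposed to compound for about 14 hours before viability readout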
[24] = NIH3T3 cell viability loss – ATP luminescence, mouse fibroblasts, counter-screen, dose response (AID 2010); format: functional, cell-based;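 note: cells exposed to compound for about 90 hours before reading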
cells [25] = format: functional, cell-based; remark: listed apart in the source
[26] = blockade of melanocortin 4 receptor signaling – cell-based, plate reader, cherry pick, counter-screen for LGR2 antagonist project, dose response (AID 743444); format: functional;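 note: transfected HEK 293 cells stimulated with alpha-MSH peptide; potency of inhibitors of the alpha-MSH evoked signal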
cells [27] = format: functional, cell-based; remark: listed apart in the source
[28] = toxicity toward HepG2 liver cells – cell-based, plate reader, cherry-pick, antagonist series, cytotoxicity control, dose response (AID 743416); format: functional
[29] = viability loss in HEK293 cells – cell-based, plate reader, cherry-picked samples, cytotoxicity control, dose response (AID 743446); format: functional
[30] = A549 cell cytotoxicity, dose response, cytotoxicity control, plate reader, cherry-pick, antagonist series (AID 743412); format: functional, cell-based
[31] = blockers of bursicon-stimulated LGR2 cAMP reporter – cell-based, HEK293, CRE-luciferase reporter, cherry pick, set 2, dose response (AID 743343); format: functional;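 note: transfected cells were stimulated with diluted bursicon conditioned medium after compound addition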

## O=C(O)c1ccc([N+](=O)[O-])c([N+](=O)[O-])c1
Caspase-6
  AC50: 12.3 µM (active)

## CCCCCCCCN1C(=O)[C@@H](CC(=O)NCc2ccc(OC)c(OC)c2)C[C@@]2(C(=O)OC)C1=C[C@H](C(C)C)O[C@@H]2C1CC1
[1]
  IC50: 10.8 µM (inactive)
[2]
  IC50: > 69.5 µM (inactive)

## C#CCn1cc(/C=C2\NC(=O)NC2=O)c2ccccc21
[3]
  IC50: 1.31 µM (active)

## Cc1cccc(Cl)c1NC(=O)N1CCCN(c2nc3ccc(Cl)cc3s2)CC1
Galanin receptor type 3
  IC50: 2.06 µM (active)
Cells [4]
  EC50: > 29.9 µM (inactive)
[5]
  IC50: 11.3 µM (inactive)

## O=C(CCN1CCc2ccccc2CC1)c1ccc2c(c1)OCCO2
[6]
  EC50: 13.1 µM (active)
[7]
  EC50: 0.254 µM (active)
[8]
  EC50: 11.3 µM (active)
Cells [9]
  EC50: > 29.9 µM (inactive)
[10]
  IC50: 0.828 µM (active)
Cells [11]
  IC50: > 29.9 µM (inactive)

## C=CCNc1nc(NCc2ccccc2)c(C#N)c2c1CN(C)CC2
[12]
  EC50: > 120 µM (not active)
[13]
  IC50: > 50 µM (not active)
Kallikrein-7
  EC50: 13.1 µM (inactive)
[14]
  EC50: > 120 µM (not active)
[15]
  EC50: > 120 µM (not active)

## C[C@@H]1CCCCO[C@H](CN(C)C(=O)NC2CCCCC2)[C@H](C)CN([C@@H](C)CO)C(=O)c2cc(NS(=O)(=O)c3ccc(Cl)cc3)ccc2O1
Paired box protein Pax-8
  AC50: 10.5 µM (active)
[16]
  AC50: 52.5 µM (active)

## c1ccc2c(c1)CCN(c1nc3cc4c(cc3s1)OCO4)C2
[7]
  EC50: 0.751 µM (active)
Cells [9]
  EC50: > 29.9 µM (inactive)
[10]
  IC50: 2.96 µM (active)
Cells [11]
  IC50: > 29.9 µM (inactive)

## O=C(OCc1ccccn1)c1ccc(COc2ccc3ccccc3c2)o1
[3]
  IC50: 2.61 µM (active)

## CCOc1ccc(C(C)=O)cc1COC(=O)c1ccccc1C(=O)N(C)Cc1ccccc1
[17]
  AC50: 4.87 µM (active)
[18]
  AC50: 3.55 µM (active)
[19]
  AC50: 5.14 µM (active)
[20]
  AC50: 6.39 µM (active)

## COc1ccc2c3c(n(C)c2c1)[C@@H](CO)N(Cc1ccccc1)CC31CCN(S(=O)(=O)c2ccc(C)cc2)CC1
[21]
  AC50: 6.1 µM (active)

## COc1ccccc1NC(=O)C(=N\O)/C(C)=N/O
Caspase-6
  AC50: 11.2 µM (active)

## COc1ccc(/C=N/OCC(=O)NC(c2ccccc2)c2ccccc2)cc1OC
Galanin receptor type 3
  IC50: 1.23 µM (active)
[22]
  EC50: 0.56 µM (active)
Cells [4]
  EC50: > 29.9 µM (inactive)
[23]
  IC50: > 80 µM (inactive)
[5]
  IC50: 5.09 µM (active)
[24]
  EC50: > 60 µM (not active)

## CCN(CC)S(=O)(=O)c1cccc(-c2cn3cccnc3n2)c1
Kallikrein-7
  EC50: > 69.5 µM (inactive)

## CN(c1cccc(Cl)c1)S(=O)(=O)c1cccc(C(=O)Nc2nc3ccccc3[nH]2)c1
Cells [25]
  EC50: 27.2 µM (active)
[26]
  AC50: 19.6 µM (active)
Cells [27]
  EC50: > 350 µM (not active)
[28]
  AC50: 22.1 µM (active)
[29]
  AC50: 21.1 µM (active)
[30]
  AC50: 14 µM (active)
[31]
  AC50: 24.5 µM (active)

## COc1cc(C(C)=O)ccc1OCC(O)CNCC(O)c1ccccc1 (configuration not stated)
[7]
  EC50: 2.13 µM (active)
Cells [9]
  EC50: > 29.9 µM (inactive)
[10]
  IC50: 12.3 µM (inactive)
Cells [11]
  IC50: > 29.9 µM (inactive)

## CCCCC[C@H](C)N1C[C@@H](COCc2ccccc2)Oc2cc(N3CC[C@H](O)C3)ccc2S1(=O)=O
[1]
  IC50: 8.14 µM (active)
[2]
  IC50: > 69.5 µM (inactive)

## N=c1c(C(=O)NC2CCCC2)cc2c(=O)n3ccccc3nc2n1CC1CCCO1 (configuration not stated)
Kallikrein-7
  EC50: 26.8 µM (inactive)
